Laboratory results as given in patent US7008905B2, “Method of combating undesired plant growth on cereals” (BASF Aktiengesellschaft, priority 2000, dated 2006).

Assays:
Type in all cases: in vivo
[1] = tested on: Alopecurus myosuroides; test: Pre-emergence test, weed control; conditions: 3 weeks after treatment, rating 0-100 (100=death), Table 1
Procedure, shortened: (§1)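 Scores from 0 (growth like untreated control) to 100 (death) were assigned by eye three weeks post-spray, with 10 units approximating a 10% change in effect. Treatment was applied to freshly sown loam at 15 to 240 g active material per hectare.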

[2] = tested on: Apera spica-venti; test: Pre-emergence test, weed control; conditions: 3 weeks after treatment, rating 0-100 (100=death), Table 1
Procedure, shortened: as §1

[3] = tested on: Galium aparine; test: Pre-emergence test, weed control; conditions: 3 weeks after treatment, rating 0-100 (100=death), Table 1
Procedure, shortened: as §1

[4] = tested on: Lamium purpureum; test: Pre-emergence test, weed control; conditions: 3 weeks after treatment, rating 0-100 (100=death), Table 1
Procedure, shortened: as §1

[5] = tested on: Lolium perenne; test: Pre-emergence test, weed control; conditions: 3 weeks after treatment, rating 0-100 (100=death), Table 1
Procedure, shortened: as §1

[6] = tested on: Matricaria inodora; test: Pre-emergence test, weed control; conditions: 3 weeks after treatment, rating 0-100 (100=death), Table 1
Procedure, shortened: as §1

[7] = tested on: Poa annua; test: Pre-emergence test, weed control; conditions: 3 weeks after treatment, rating 0-100 (100=death), Table 1
Procedure, shortened: as §1

[8] = tested on: Polygonum convolvulus; test: Pre-emergence test, weed control; conditions: 3 weeks after treatment, rating 0-100 (100=death), Table 1
Procedure, shortened: as §1

[9] = tested on: Setaria viridis; test: Pre-emergence test, weed control; conditions: 3 weeks after treatment, rating 0-100 (100=death), Table 1
Procedure, shortened: as §1

[10] = tested on: Stellaria media; test: Pre-emergence test, weed control; conditions: 3 weeks after treatment, rating 0-100 (100=death), Table 1
Procedure, shortened: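 Herbicidal effect was scored visually on a 0–100 scale (100 = death, 0 = untreated-like) three weeks after treatment. Soil was horticultural loam sprayed just after sowing with aqueous-diluted acetone/0.4% TRITON X-155 formulations at 15–240 g a.i./ha (900 L/ha).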

[11] = tested on: Veronica persica; test: Pre-emergence test, weed control; conditions: 3 weeks after treatment, rating 0-100 (100=death), Table 1
Procedure, shortened: as §1

[12] = tested on: HORVW; test: Pre-emergence test, selectivity; conditions: 3 weeks after treatment, rating 0-100 (100=death), Table 2
Procedure, shortened: as §1

[13] = tested on: Hordeum vulgare variety “Mammut”; test: Pre-emergence test, selectivity; conditions: 3 weeks after treatment, rating 0-100 (100=death), Table 2
Procedure, shortened: as §1

[14] = tested on: Triticum aestivum variety “Kanzler”; test: Pre-emergence test, selectivity; conditions: 3 weeks after treatment, rating 0-100 (100=death), Table 2
Procedure, shortened: as §1

[15] = tested on: Triticum aestivum variety “Monopol”; test: Pre-emergence test, selectivity; conditions: 3 weeks after treatment, rating 0-100 (100=death), Table 2
Procedure, shortened: as §1

[16] = tested on: Galium aparine; test: Post-emergence test, weed control; conditions: 2–4 weeks after treatment, rating 0-100 (100=death), Table 5
Procedure: (§2) These acetone solutions are diluted with water and the resulting formulations applied at dosage levels equivalent of about 0.030 to 0.240 kg per hectare of test compound per pot. After spraying the plants are placed an greenhouse benches and are cared for in the usual manner, commensurate with conventional greenhouse practices. From 2 to 4 weeks after treatment, the seedling plants are examined and rated according to the rating system provided above. A rating 0 indicates growth as untreated control, a rating 100 indicates death.

[17] = tested on: Lamium purpureum; test: Post-emergence test, weed control; conditions: 2–4 weeks after treatment, rating 0-100 (100=death), Table 5
Procedure: as §2

[18] = tested on: Stellaria media; test: Post-emergence test, weed control; conditions: 2–4 weeks after treatment, rating 0-100 (100=death), Table 5
Procedure: as §2

[19] = tested on: VIOAR; test: Post-emergence test, weed control; conditions: 2–4 weeks after treatment, rating 0-100 (100=death), Table 5
Procedure: as §2

[20] = tested on: wheat; test: Post-emergence test, tolerance in wheat; conditions: in vivo
Procedure: as §2

CCc1cc(Oc2cccc(C(F)(F)F)c2)nc(-c2ccc(C(F)(F)F)cc2)n1 [REF-3]
ALOMY weed control rating ([1]; 0.015 kg/ha): 55 | ALOMY weed control rating ([1]; 0.030 kg/ha): 98 | ALOMY weed control rating ([1]; 0.060 kg/ha): 98 | ALOMY weed control rating ([1]; 0.120 kg/ha): 100 | ALOMY weed control rating ([1]; 0.240 kg/ha): 100 | APESV weed control rating ([2]; 0.015 kg/ha): 100 | APESV weed control rating ([2]; 0.030 kg/ha): 100 | APESV weed control rating ([2]; 0.060 kg/ha): 100 | APESV weed control rating ([2]; 0.120 kg/ha): 100 | APESV weed control rating ([2]; 0.240 kg/ha): 100 | GALAP weed control rating ([3]; 0.060 kg/ha): 50 | GALAP weed control rating ([3]; 0.120 kg/ha): 85 | GALAP weed control rating ([3]; 0.240 kg/ha): 97 | LAMPU weed control rating ([4]; 0.015 kg/ha): 100 | LAMPU weed control rating ([4]; 0.030 kg/ha): 100 | LAMPU weed control rating ([4]; 0.060 kg/ha): 100 | LAMPU weed control rating ([4]; 0.120 kg/ha): 100 | LAMPU weed control rating ([4]; 0.240 kg/ha): 100 | LOLPE weed control rating ([5]; 0.015 kg/ha): 90 | LOLPE weed control rating ([5]; 0.030 kg/ha): 98 | LOLPE weed control rating ([5]; 0.060 kg/ha): 99 | LOLPE weed control rating ([5]; 0.120 kg/ha): 99 | LOLPE weed control rating ([5]; 0.240 kg/ha): 100 | MATIN weed control rating ([6]; 0.015 kg/ha): 99 | MATIN weed control rating ([6]; 0.030 kg/ha): 99 | MATIN weed control rating ([6]; 0.060 kg/ha): 99 | MATIN weed control rating ([6]; 0.120 kg/ha): 100 | MATIN weed control rating ([6]; 0.240 kg/ha): 100 | POAAN weed control rating ([7]; 0.015 kg/ha): 100 | POAAN weed control rating ([7]; 0.030 kg/ha): 100 | POAAN weed control rating ([7]; 0.060 kg/ha): 100 | POAAN weed control rating ([7]; 0.120 kg/ha): 100 | POAAN weed control rating ([7]; 0.240 kg/ha): 100 | POLCO weed control rating ([8]; 0.015 kg/ha): 25 | POLCO weed control rating ([8]; 0.030 kg/ha): 70 | POLCO weed control rating ([8]; 0.060 kg/ha): 80 | POLCO weed control rating ([8]; 0.120 kg/ha): 100 | POLCO weed control rating ([8]; 0.240 kg/ha): 100 | SETVI weed control rating ([9]; 0.015 kg/ha): 100 | SETVI weed control rating ([9]; 0.030 kg/ha): 100 | SETVI weed control rating ([9]; 0.060 kg/ha): 100 | SETVI weed control rating ([9]; 0.120 kg/ha): 100 | SETVI weed control rating ([9]; 0.240 kg/ha): 100 | STEME weed control rating ([10]; 0.015 kg/ha): 98 | STEME weed control rating ([10]; 0.030 kg/ha): 100 | STEME weed control rating ([10]; 0.060 kg/ha): 100 | STEME weed control rating ([10]; 0.120 kg/ha): 100 | STEME weed control rating ([10]; 0.240 kg/ha): 100 | VERPE weed control rating ([11]; 0.015 kg/ha): 100 | VERPE weed control rating ([11]; 0.030 kg/ha): 100 | VERPE weed control rating ([11]; 0.060 kg/ha): 100 | VERPE weed control rating ([11]; 0.120 kg/ha): 100 | VERPE weed control rating ([11]; 0.240 kg/ha): 100 | HORVW rating (Selectivity) ([12]; 0.015 kg/ha): 15 | HORVW rating (Selectivity) ([12]; 0.030 kg/ha): 45 | HORVW rating (Selectivity) ([12]; 0.060 kg/ha): 45 | HORVW rating (Selectivity) ([12]; 0.120 kg/ha): 60 | HORVW rating (Selectivity) ([12]; 0.240 kg/ha): 60 | HORVWM rating (Selectivity) ([13]; 0.015 kg/ha): 20 | HORVWM rating (Selectivity) ([13]; 0.030 kg/ha): 30 | HORVWM rating (Selectivity) ([13]; 0.060 kg/ha): 40 | HORVWM rating (Selectivity) ([13]; 0.120 kg/ha): 55 | HORVWM rating (Selectivity) ([13]; 0.240 kg/ha): 55 | TRZAWK rating (Selectivity) ([14]; 0.015 kg/ha): 5 | TRZAWK rating (Selectivity) ([14]; 0.030 kg/ha): 8 | TRZAWK rating (Selectivity) ([14]; 0.060 kg/ha): 8 | TRZAWK rating (Selectivity) ([14]; 0.120 kg/ha): 25 | TRZAWK rating (Selectivity) ([14]; 0.240 kg/ha): 40 | TRZAWM rating (Selectivity) ([15]; 0.015 kg/ha): 3 | TRZAWM rating (Selectivity) ([15]; 0.030 kg/ha): 8 | TRZAWM rating (Selectivity) ([15]; 0.060 kg/ha): 10 | TRZAWM rating (Selectivity) ([15]; 0.120 kg/ha): 35 | TRZAWM rating (Selectivity) ([15]; 0.240 kg/ha): 45 | GALAP weed control rating ([16]; 0.030 kg/ha): 90 | GALAP weed control rating ([16]; 0.060 kg/ha): 90 | GALAP weed control rating ([16]; 0.120 kg/ha): 93 | GALAP weed control rating ([16]; 0.240 kg/ha): 93 | LAMPU weed control rating ([17]; 0.030 kg/ha): 93 | LAMPU weed control rating ([17]; 0.060 kg/ha): 93 | LAMPU weed control rating ([17]; 0.120 kg/ha): 93 | LAMPU weed control rating ([17]; 0.240 kg/ha): 93 | STEME weed control rating ([18]; 0.030 kg/ha): 65 | STEME weed control rating ([18]; 0.060 kg/ha): 85 | STEME weed control rating ([18]; 0.120 kg/ha): 85 | STEME weed control rating ([18]; 0.240 kg/ha): 92 | VIOAR weed control rating ([19]; 0.030 kg/ha): 90 | VIOAR weed control rating ([19]; 0.060 kg/ha): 90 | VIOAR weed control rating ([19]; 0.120 kg/ha): 90 | VIOAR weed control rating ([19]; 0.240 kg/ha): 93 | maximum tolerated dose in wheat / dose at which sufficiently selective in wheat [20]: clearly less selective in wheat than TTP
